Source: paper PMC5567048, “A novel c-di-GMP binding domain in glycosyltransferase BgsA is responsible for the synthesis of a mixed-linkage β-glucan” (Scientific Reports, 2017)
Numbering of substitutions follows the chain as printed. Each block holds one molecule with its values, some of them ahead of it.

What was measured:
C-BgsA [1] = molecular target: T1, C-BgsA (Sinorhizobium meliloti, UniProt Q92WG2, G635R); test: SPR direct binding, immobilised ligand
T1 construct: gene SM_b20391
T1 sequence (Q92WG2 526-664 G635R): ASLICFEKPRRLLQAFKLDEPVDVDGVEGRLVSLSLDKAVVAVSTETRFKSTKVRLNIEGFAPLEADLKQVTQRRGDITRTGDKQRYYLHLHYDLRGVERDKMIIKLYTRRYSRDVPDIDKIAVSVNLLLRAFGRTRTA

C-BgsA [2] = molecular target: T2, C-BgsA (Sinorhizobium meliloti, UniProt Q92WG2); test: SPR direct binding, immobilised ligand
T2 construct: gene SM_b20391
T2 sequence (Q92WG2 526-664): T1 sequence (Q92WG2 526-664 G635R) with R110G

C-BgsA [3] = molecular target: T3, C-BgsA (Sinorhizobium meliloti, UniProt Q92WG2, G635V); test: SPR direct binding, immobilised ligand
T3 construct: gene SM_b20391
T3 sequence (Q92WG2 526-664 G635V): T1 sequence (Q92WG2 526-664 G635R) with R110V

C-BgsA [4] = molecular target: T2, C-BgsA; test: SPR solution competition against immobilised […]′-AHC-c-di-GMP chip; format: binding; details: weak competitor; c-di-GMP at the same concentration gave 98%; 20 mM MOPS pH 8.0, 300 mM NaCl, 25 °C
C-BgsA [5] = molecular target: T4, C-BgsA (Sinorhizobium meliloti, UniProt Q92WG2, D608A); test: as above; format: binding
T4 construct: gene SM_b20391

C-BgsA [6] = molecular target: T5, C-BgsA (Sinorhizobium meliloti, UniProt Q92WG2, R605A); test: as above; format: binding
T5 construct: gene SM_b20391

C-BgsA [7] = molecular target: T6, C-BgsA (Sinorhizobium meliloti, UniProt Q92WG2, R599A); test: as above; format: binding
T6 construct: gene SM_b20391

C-BgsA [8] = molecular target: T7, C-BgsA (Sinorhizobium meliloti, UniProt Q92WG2, R656A); test: as above; format: binding
T7 construct: gene SM_b20391

C-BgsA [9] = molecular target: T2, C-BgsA; test: as above; format: binding
C-BgsA [10] = molecular target: T8, C-BgsA (Sinorhizobium meliloti, UniProt Q92WG2, H615A); test: as above; format: binding
T8 construct: gene SM_b20391

C-BgsA [11] = molecular target: T9, C-BgsA (Sinorhizobium meliloti, UniProt Q92WG2, Y633A); test: as above; format: binding
T9 construct: gene SM_b20391
T9 sequence (Q92WG2 entry or part of it Y633A): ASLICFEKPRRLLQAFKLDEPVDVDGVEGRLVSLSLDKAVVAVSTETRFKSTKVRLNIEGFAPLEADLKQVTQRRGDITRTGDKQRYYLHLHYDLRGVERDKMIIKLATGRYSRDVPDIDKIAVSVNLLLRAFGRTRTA

T4 sequence (Q92WG2 entry or part of it D608A): as the sequence (Q92WG2 entry or part of it Y633A) above, with D83A, A108Y counted along it
T8 sequence (Q92WG2 entry or part of it H615A): as the sequence (Q92WG2 entry or part of it Y633A) above, with H90A, A108Y counted along it
T7 sequence (Q92WG2 entry or part of it R656A): as the sequence (Q92WG2 entry or part of it Y633A) above, with A108Y, R131A counted along it
T6 sequence (Q92WG2 entry or part of it R599A): as the sequence (Q92WG2 entry or part of it Y633A) above, with R74A, A108Y counted along it
T5 sequence (Q92WG2 entry or part of it R605A): as the sequence (Q92WG2 entry or part of it Y633A) above, with R80A, A108Y counted along it

Compound: NCCCCCCNC(=O)O[C@@H]1[C@@H]2OP(=O)(O)OC[C@H]3O[C@@H](n4cnc5c(=O)[nH]c(N)nc54)[C@H](O)[C@@H]3OP(=O)(O)OC[C@H]2O[C@H]1n1cnc2c(=O)[nH]c(N)nc21 [2′-AHC-c-di-GMP]
- Kd (C-BgsA [1]): 190 nM
- Kd (C-BgsA [2]): 230 nM
- Kd (C-BgsA [3]): 140 nM

- % reduction of C-BgsA binding at 500 μM (C-BgsA [4]): 17%
Compound: Nc1ncnc2c1ncn2[C@@H]1O[C@@H]2COP(=O)(O)O[C@H]3[C@@H](O)[C@H](n4cnc5c(N)ncnc54)O[C@@H]3COP(=O)(O)O[C@H]2[C@H]1O [c-di-AMP]

- EC50 (C-BgsA [5]): 270 ± 70 nM
- EC50 (C-BgsA [6]): 140 ± 10 nM
- EC50 (C-BgsA [7]): 372000 ± 114000 nM
- EC50 (C-BgsA [8]): 400 ± 50 nM
- EC50 (C-BgsA [9]): 270 ± 10 nM
- EC50 (C-BgsA [10]): 292000 ± 73000 nM
- EC50 (C-BgsA [11]): 230 ± 10 nM
Compound: Nc1nc2c(ncn2[C@@H]2O[C@@H]3CO[P@](=O)(O)O[C@H]4[C@@H](O)[C@H](n5cnc6c(=O)[nH]c(N)nc65)O[C@@H]4CO[P@](=O)(O)O[C@H]3[C@H]2O)c(=O)[nH]1 [c-di-GMP]
